Laboratory results published in ChEMBL document CHEMBL3745637, “New hybrid molecules with anticonvulsant and antinociceptive activity derived from 3-methyl- or 3,3-dimethyl-1-[1-oxo-1-(4-phenylpiperazin-1-yl)propan-2-yl]pyrrolidine-2,5-diones” (Bioorg Med Chem, 2016).
Active and inactive are the calls of the source. No cut-off for these calls is given here.

Experiments:
Mus musculus [1] = experiment: Anticonvulsant activity against ip dosed Swiss mouse seizure model assessed as protection at 0.25 hrs by 6 Hz psychomotor seizure test; format: functional
Mus musculus [2] = experiment: Anticonvulsant activity in Swiss mouse assessed as reduction in clonic seizures at 100 mg/kg, ip pretreated for 0.5 hrs measured after 30 mins by subcutaneous pentylenetetrazole seizure test; format: functional, organism-based
Mus musculus [3] = experiment: Anticonvulsant activity against Swiss mouse seizure model assessed as protection at 100 mg/kg, ip pretreated for 0.25 hrs by 6 Hz psychomotor seizure test; format: functional, organism-based
Mus musculus [4] = experiment: Anticonvulsant activity in ip dosed Swiss mouse assessed as protection against maximal electroshock-induced seizures at 0.25 hrs; format: functional
Mus musculus [5] = experiment: Antinociceptive activity in ip dosed Swiss mouse assessed as reduction of formalin-induced licking at MES ED50 pretreated for 0.25 hrs measured during 1 to 5 mins; format: functional
Mus musculus [6] = experiment: Anticonvulsant activity in ip dosed Swiss mouse assessed as reduction in clonic seizures at 0.5 hrs by subcutaneous pentylenetetrazole seizure test; format: functional
[7] = Protective index, ratio of TD50 for neurotoxicity in ip dosed Swiss mouse to ED50 for anticonvulsant activity in ip dosed Swiss mouse 6 Hz psychomotor seizure model at 0.25 hrs; format: toxicity, organism-based; conditions: in vivo, read-out: Ratio TD50/ED50
[8] = Protective index, ratio of TD50 for neurotoxicity in ip dosed Swiss mouse to ED50 for anticonvulsant activity in ip dosed Swiss mouse 6 Hz psychomotor seizure model at 0.5 hrs; format: toxicity, organism-based; conditions: in vivo, read-out: Ratio TD50/ED50
[9] = Neurotoxicity in ip dosed Swiss mouse seizure model assessed as motor impairment pretreated for 0.25 hrs measured within 60 s by chimney test; format: toxicity, organism-based; conditions: in vivo
Mus musculus [10] = experiment: Anticonvulsant activity in ip dosed Swiss mouse assessed as protection against maximal electroshock-induced seizures at 0.5 hrs; format: functional
Mus musculus [11] = experiment: Anticonvulsant activity in Swiss mouse assessed as reduction in clonic seizures at 100 mg/kg, ip pretreated for 2 hrs measured after 30 mins by subcutaneous pentylenetetrazole seizure test; format: functional, organism-based
Mus musculus [12] = experiment: Anticonvulsant activity in Swiss mouse assessed as reduction in clonic seizures at 100 mg/kg, ip pretreated for 1 hr measured after 30 mins by subcutaneous pentylenetetrazole seizure test; format: functional, organism-based
Mus musculus [13] = experiment: Anticonvulsant activity in Swiss mouse assessed as protection against maximal electroshock-induced seizures at 300 mg/kg, ip pretreated for 0.25 hrs; format: functional, organism-based
Mus musculus [14] = experiment: Antinociceptive activity in ip dosed Swiss mouse assessed as reduction of formalin-induced licking at MES ED50 pretreated for 0.25 hrs measured during 20 to 25 mins; format: functional; design: scale not given: the % may be the effect or the level left
[15] = Protective index, ratio of TD50 for neurotoxicity in ip dosed Swiss mouse to ED50 for anticonvulsant activity in ip dosed MES Swiss mouse model at 0.25 hrs; format: toxicity, organism-based; conditions: in vivo, read-out: Ratio TD50/ED50
[16] = Protective index, ratio of TD50 for neurotoxicity in ip dosed Swiss mouse to ED50 for anticonvulsant activity in ip dosed scPTZ Swiss mouse model at 0.25 hrs; format: toxicity, organism-based; conditions: in vivo, read-out: Ratio TD50/ED50
Mus musculus [17] = experiment: Antinociceptive activity in ip dosed Swiss mouse assessed as reduction of formalin-induced licking at MES ED50 pretreated for 0.25 hrs measured during 15 to 20 mins; format: functional; design: scale not given: the % may be the effect or the level left
[18] = Neurotoxicity in ip dosed Swiss mouse seizure model assessed as motor impairment pretreated for 0.5 hrs measured within 60 s by chimney test; format: toxicity, organism-based; conditions: in vivo
Mus musculus [19] = experiment: Anticonvulsant activity in ip dosed Swiss mouse assessed as prolong latency to first seizure episode pretreated for 0.25 hrs measured after 30 mins by subcutaneous pentylenetetrazole seizure test; format: functional, organism-based
[20] = Protective index, ratio of TD50 for neurotoxicity in ip dosed Swiss mouse to ED50 for anticonvulsant activity in ip dosed MES Swiss mouse model at 0.5 hrs; format: toxicity, organism-based; conditions: in vivo, read-out: Ratio TD50/ED50
Mus musculus [21] = experiment: Anticonvulsant activity against ip dosed Swiss mouse seizure model assessed as protection at 0.5 hrs by 6 Hz psychomotor seizure test; format: functional
Mus musculus [22] = experiment: Anticonvulsant activity in ip dosed Swiss mouse assessed as reduction in clonic seizures at 0.25 hrs by subcutaneous pentylenetetrazole seizure test; format: functional
Mus musculus [23] = experiment: Anticonvulsant activity against Swiss mouse seizure model assessed as protection at 100 mg/kg, ip pretreated for 0.5 hrs by 6 Hz psychomotor seizure test; format: functional, organism-based
Mus musculus [24] = experiment: Anticonvulsant activity in ip dosed Swiss mouse assessed as reduction in clonic seizures at 1 hr by subcutaneous pentylenetetrazole seizure test; format: functional
[25] = Neurotoxicity in ip dosed Swiss mouse seizure model assessed as motor impairment pretreated for 1 hr measured within 60 s by chimney test; format: toxicity, organism-based; conditions: in vivo
Mus musculus [26] = experiment: Anticonvulsant activity in ip dosed Swiss mouse assessed as protection against maximal electroshock-induced seizures at 1 hr; format: functional
[27] = Protective index, ratio of TD50 for neurotoxicity in ip dosed Swiss mouse to ED50 for anticonvulsant activity in ip dosed Swiss mouse 6 Hz psychomotor seizure model at 1 hr; format: toxicity, organism-based; conditions: in vivo, read-out: Ratio TD50/ED50
Mus musculus [28] = experiment: Anticonvulsant activity in Swiss mouse assessed as protection against maximal electroshock-induced seizures at 300 mg/kg, ip pretreated for 0.5 hrs; format: functional, organism-based
[29] = Protective index, ratio of TD50 for neurotoxicity in ip dosed Swiss mouse to ED50 for anticonvulsant activity in ip dosed scPTZ Swiss mouse model at 0.5 hrs; format: toxicity, organism-based; conditions: in vivo, read-out: Ratio TD50/ED50
Mus musculus [30] = experiment: Anticonvulsant activity in Swiss mouse assessed as protection against maximal electroshock-induced seizures at 100 mg/kg, ip pretreated for 2 hrs; format: functional, organism-based
Mus musculus [31] = experiment: Anticonvulsant activity in Swiss mouse assessed as protection against maximal electroshock-induced seizures at 100 mg/kg, ip pretreated for 0.25 hrs; format: functional, organism-based
Mus musculus [32] = experiment: Anticonvulsant activity in Swiss mouse assessed as prolong latency to first seizure episode at 120 mg/kg pretreated for 0.25 hrs measured after 30 mins by subcutaneous pentylenetetrazole seizure test; format: functional, organism-based
Mus musculus [33] = experiment: Anticonvulsant activity in Swiss mouse assessed as prolong latency to first seizure episode at 250 mg/kg pretreated for 0.5 hrs measured after 30 mins by subcutaneous pentylenetetrazole seizure test; format: functional, organism-based
Mus musculus [34] = experiment: Antinociceptive activity in ip dosed Swiss mouse assessed as reduction of formalin-induced licking at MES ED50 pretreated for 0.25 hrs measured during 25 to 30 mins; format: functional; design: scale not given: the % may be the effect or the level left
Mus musculus [35] = experiment: Anticonvulsant activity in Swiss mouse assessed as reduction in clonic seizures at 100 mg/kg, ip pretreated for 0.25 hrs measured after 30 mins by subcutaneous pentylenetetrazole seizure test; format: functional, organism-based
Mus musculus [36] = experiment: Anticonvulsant activity in Swiss mouse assessed as protection against maximal electroshock-induced seizures at 300 mg/kg, ip pretreated for 2 hrs; format: functional, organism-based
Mus musculus [37] = experiment: Antinociceptive activity in ip dosed Swiss mouse assessed as reduction of formalin-induced licking at MES ED50 pretreated for 0.25 hrs measured during 15 to 30 mins; format: functional, organism-based
Mus musculus [38] = experiment: Anticonvulsant activity in Swiss mouse assessed as protection against maximal electroshock-induced seizures at 300 mg/kg, ip pretreated for 1 hr; format: functional, organism-based

Compound	ED50 (Mus musculus [1]) [mg/kg]	Activity (Mus musculus [3])	ED50 (Mus musculus [4]) [mg/kg]	Activity (Mus musculus [5])	ED50 (Mus musculus [6]) [mg/kg]	selectivity ratio at 0.25 h [7]	selectivity ratio at 0.5 h [8]	TD50 at 0.25 h [9] [mg/kg]	ED50 (Mus musculus [10]) [mg/kg]	Activity (Mus musculus [11])	Activity (Mus musculus [12])	Activity (Mus musculus [13])	Activity (Mus musculus [14]) [%]	selectivity ratio at 0.25 h [15]	selectivity ratio at 0.25 h [16]	Activity (Mus musculus [17]) [%]	TD50 at 0.5 h [18] [mg/kg]	Activity (Mus musculus [19])	selectivity ratio at 0.5 h [20]	ED50 (Mus musculus [21]) [mg/kg]	other results
CCC(C(=O)N1CCN(c2cccc(C(F)(F)F)c2)CC1)N1C(=O)CC(C)C1=O (stereo unspecified)	30.3	Active	75.1	inactive	> 130	5.42	4.12	164	75.7	inactive	inactive	Active	57	2.19	1.51	94	170	Dose-dependent effect	2.24	41.2	Activity (Mus musculus [2]): inactive; ED50 (Mus musculus [22]): 108 mg/kg; Activity (Mus musculus [23]): Active
CC[C@@H](C(N)=O)N1CCCC1=O [LEVETIRACETAM]	–	–	–	–	–	–	–	–	–	–	–	–	–	–	–	–	–	–	–	–	ED50 (Mus musculus [24]): > 500 mg/kg; TD50 at 1 h [25]: > 500 mg/kg; ED50 (Mus musculus [26]): > 500 mg/kg; selectivity ratio at 1 h [27]: > 33.8
CC1CC(=O)N(C(C)C(=O)N2CCN(c3cccc(Cl)c3)CC2)C1=O (stereo unspecified)	13.6	Active	89.7	45%	121	19.2	11.1	261	98.5	inactive	inactive	Active	88	2.91	2.3	74	270	Dose-dependent effect	2.74	24.4	Activity (Mus musculus [28]): Active; selectivity ratio at 0.5 h [29]: 2.23; Activity (Mus musculus [30]): inactive; Activity (Mus musculus [31]): Active; ED50 (Mus musculus [22]): 114 mg/kg; Activity (Mus musculus [23]): Active
CCC1(C)CC(=O)NC1=O (stereo unspecified) [ETHOSUXIMIDE]	> 200	–	> 500	–	–	–	–	–	–	–	–	–	–	–	4.89	–	–	–	–	–	Activity (Mus musculus [32]): Active
CCCC(CCC)C(=O)O	–	–	–	–	–	–	–	–	–	–	–	–	–	–	–	–	–	–	–	–	Activity (Mus musculus [33]): Active
CC(C(=O)N1CCN(c2cccc(C(F)(F)F)c2)CC1)N1C(=O)CC(C)(C)C1=O (stereo unspecified)	29	–	114	56%	–	14.7	–	425	–	inactive	–	Active	93	3.73	–	96	–	–	–	–	Activity (Mus musculus [34]): 98%; Activity (Mus musculus [35]): inactive; Activity (Mus musculus [36]): Active; Activity (Mus musculus [28]): Active; Activity (Mus musculus [37]): Active; Activity (Mus musculus [38]): Active; Activity (Mus musculus [30]): inactive; Activity (Mus musculus [31]): Active
